PMC2758355 (Chemical research in toxicology, 2009)
“Also recorded” adds a separate entry of the source.

What was measured:
ER = settings: cited from earlier work
ERα [1] = target: T1, ERα (Homo sapiens, UniProt P03372); experiment: Competition binding with [3H]estradiol in MCF-7 cells; settings: for activity in in vitro assays (result in words): binding and transactivation assays, experimental testing; for Ki: competition with radioactive-labeled estradiol
T1 sequence (P03372 1-595): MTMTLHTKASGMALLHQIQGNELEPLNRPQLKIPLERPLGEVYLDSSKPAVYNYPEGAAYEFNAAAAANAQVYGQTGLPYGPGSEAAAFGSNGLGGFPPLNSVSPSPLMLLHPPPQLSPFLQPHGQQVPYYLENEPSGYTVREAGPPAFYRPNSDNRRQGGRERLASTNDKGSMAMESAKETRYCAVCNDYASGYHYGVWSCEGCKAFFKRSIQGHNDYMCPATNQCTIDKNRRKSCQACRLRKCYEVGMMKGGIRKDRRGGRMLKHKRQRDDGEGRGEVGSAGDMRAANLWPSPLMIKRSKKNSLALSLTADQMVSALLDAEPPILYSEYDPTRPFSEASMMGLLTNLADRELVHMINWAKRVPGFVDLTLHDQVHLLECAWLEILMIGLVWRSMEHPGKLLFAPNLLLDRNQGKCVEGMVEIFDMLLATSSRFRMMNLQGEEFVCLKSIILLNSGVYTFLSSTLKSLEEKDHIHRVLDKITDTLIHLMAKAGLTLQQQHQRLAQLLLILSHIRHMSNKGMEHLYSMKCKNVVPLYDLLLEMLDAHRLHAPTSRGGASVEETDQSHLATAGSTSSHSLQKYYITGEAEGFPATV

ERα [2] = target: T1, ERα; settings: cited from earlier work
[3] = established by JECFA; ref www.fao.org/ag/agn/jecfa-additives; cited from earlier work

Compound	binding to ER (result in words) (ER)	activity in in vitro assays (result in words) (ERα [1])	other results
CCCCOC(=O)c1ccc(O)cc1 [butyl p-hydroxybenzoate]	known to bind to ER; also recorded: weak binders	–	–
COc1cc(CNC(=O)CCCC/C=C/C(C)C)ccc1O [capsaicin]	–	inactive	–
COc1cc(/C=C/C(=O)CC(=O)/C=C/c2ccc(O)c(OC)c2)ccc1O [curcumin]	–	–	binding to the receptor in the competition assay (result in words) (ERα [1]; competitor 1 nM to 0.25 μM): lack binding activity
CC(Cc1ccc(O)c(O)c1)C(C)Cc1ccc(O)c(O)c1 (centres unmarked) [nordihydroguaiaretic acid]	known to bind to ER; also recorded: nanomolar binding affinity/potency	–	–
CCCCCCCCOC(=O)c1cc(O)c(O)c(O)c1 [octyl gallate]	–	only the propyl gallate resulted active	–
CCCOC(=O)c1cc(O)c(O)c(O)c1 [propyl gallate]	–	active	transactivation activity (result in words) (ERα [2]): high micromolar range; Ki (ERα [1]; binding constant, Figure 4a): 0.054 µM; Ki (ERα [1]; pKi): 0.0407 µM; acceptable daily intake [3]: 0−1.4 mg/kg
CCCOC(=O)c1ccc(O)cc1 [propyl p-hydroxybenzoate]	known to bind to ER	–	–
